The text below walks through data of PubChem BioAssay AID1417 (Emory University Molecular Libraries Screening Center, 2008).

What is called IC50 is the midpoint of a concentration-inhibition curve. Lower therefore signals greater potency in that assay.

The target of the experiment is Induced myeloid leukemia cell differentiation protein Mcl-1 (Homo sapiens) (UniProt Q07820). As to the kind of experiment: Mcl-1 Noxa peptide disruption concentration-response – biochemical, TR-FRET, dose response (AID 1417). The following applies: Mcl-1/Noxa peptide interaction, cell-free TR-FRET (terbium/rhodamine), 2 h; measured here: absolute IC50. (In general: Time-resolved FRET reads energy transfer from a long-lived donor to a nearby acceptor.)
Sequence of Induced myeloid leukemia cell differentiation protein Mcl-1 (Homo sapiens) (Q07820 whole entry, looked up): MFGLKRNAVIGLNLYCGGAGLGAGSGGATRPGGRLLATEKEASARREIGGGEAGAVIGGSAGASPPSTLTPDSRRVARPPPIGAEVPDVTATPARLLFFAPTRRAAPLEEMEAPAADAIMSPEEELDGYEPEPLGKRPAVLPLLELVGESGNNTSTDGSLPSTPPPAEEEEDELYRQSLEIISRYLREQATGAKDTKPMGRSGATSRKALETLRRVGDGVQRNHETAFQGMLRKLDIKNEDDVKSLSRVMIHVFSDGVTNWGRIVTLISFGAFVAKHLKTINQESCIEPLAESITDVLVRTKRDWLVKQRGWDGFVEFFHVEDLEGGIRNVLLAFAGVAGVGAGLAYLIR
Take `N#C/C(=C\c1ccc(C(=O)O)cc1)c1nc2sc3c(c2c(=O)[nH]1)CCCC3`: the concentration for half-maximal inhibition (IC50) came to 2.95 µM.
Take `Cc1ccc(/C=C2\C(=O)NC(=S)N(c3ccccc3F)C2=O)s1`: the half-maximal inhibitory concentration (IC50) turned out to be 1.86 µM.
Then `C=C(C)C(=O)Nc1cccc(C2=NOC3(C2)C[C@H](C(N)=O)N(C(=O)C(c2ccccc2)c2ccccc2)C3)c1` (some centres not stated), with 4.43 µM.
In turn, `O=C1/C(=C/c2ccccn2)SC(=S)N1c1ccc(O)cc1` gave a half-inhibitory concentration (IC50) of 8.38 µM.
`Cc1cc(N/N=C/c2ccc(O)c(C)c2O)nc(-c2ccccc2O)n1` showed an IC50 of 3.66 µM.
Then `Oc1ccc(/C=N/Nc2nc(-c3cccnc3)nc3ccccc23)c(O)c1`, with over 54 µM; and `Cc1cccc(C)c1NC(=O)CSc1nnc(-c2ccco2)c(-c2ccco2)n1`, with 1.93 µM.
On to `COC(=O)c1ccc2nc(Nc3nc4ccc(F)cc4s3)sc2c1`, for which the half-inhibitory concentration (IC50) worked out at 1.75 µM.
Then `CCn1c(C)nc2cc(C(=O)N/N=C/c3ccc(O)c(O)c3O)ccc21`, with under 0.4 µM; and `CCOC1=C/C(=C/c2c(N)n3nc(-c4ccccc4)sc3nc2=O)C=CC1=O`, with 2.43 µM; and `COc1cc2c(cc1O)C[C@H]1NCCc3cc4c(c-2c31)OCO4`, with 5.2 µM.
As for `Cc1ccc(-n2cccc2/C=C2/C(=N)N3C(=NC2=O)SN=C3S(C)(=O)=O)cc1`, the figure is 5.4 µM; as for `COc1ccc(-c2csc(/C(C#N)=C\c3ccc(O)c([N+](=O)[O-])c3)n2)cc1OC`, 4.75 µM; as for `Cc1c(O)cc2c(c1O)C(=O)CC(c1ccc(O)cc1)O2` (configuration not stated), 2.84 µM.
As for `O=C(COc1ccc2ccccc2c1)NNC(=O)c1ccc([N+](=O)[O-])cc1`, the figure is 8.48 µM; as for `O=S(=O)(Cc1cc(Cl)nc(-c2ccncc2)n1)c1ccccc1`, 24.8 µM.
Regarding `O=C(O)CSc1cc(C(=O)c2ccccc2O)cn2c(=O)c3c4c(sc3nc12)CCCC4`, the IC50 came to 3.38 µM. Against the preceding compound, the IC50 is about 7.3-fold lower.
Then `Cc1ccc(NC(=O)c2cc(N3C(=O)C=CC3=O)ccc2Cl)cc1C`, with under 0.4 µM.
As for `CC(=O)Nc1ccc(C2=NNC(=Nc3cccc(S(=O)(=O)N(C)C)c3)SC2)cc1`, the figure is 3.03 µM.
Take `COc1ccc(NC(C)C(=O)Nc2ccc(C#N)cc2)cc1Cl` (configuration not stated): the IC50 is over 54 µM.
As for `CCCC1=NN2C(=N)/C(=C\c3ccc(SCc4ccco4)o3)C(=O)N=C2S1`, the figure is under 0.4 µM.
Then `Cc1cc(N=Cc2c(O)ccc3cc(Br)ccc23)no1`, with 53.5 µM; and `O=C(CSc1n[nH]c(=O)[nH]c1=O)Nc1ccc2c(c1)C(=O)c1ccccc1C2=O`, with over 54 µM; and `Oc1ccc(N2CCN(c3ncnc4sc(-c5ccccc5)cc34)CC2)cc1`, with 1.15 µM.
Then `CCOc1ccccc1Nc1nc(-c2sc(NC(=O)c3ccc([N+](=O)[O-])cc3)nc2C)cs1`, with under 0.4 µM.
In the case of `CC1=NN(c2ccccc2)C(=O)/C1=C/c1c(O)n(-c2ccc(F)c(Cl)c2)[nH]c1=O`, the IC50 stood at 4.79 µM.
As for `Cc1ccc2c(c1)NC(=O)c1cccnc1N2`, the figure is over 54 µM.
`COc1ccc2c(=O)c3c(=O)n(-c4ccc(C)cc4)c(-c4ccccc4)nc3oc2c1` showed an IC50 of over 54 µM.
Then `CNc1ccc(Br)cc(C(=O)/C=C/c2cc(OC)ccc2OC)c1=O`, with 1.73 µM; and `CC(=O)Nc1sc(N/N=C/c2ccc(O)cc2)nc1-c1ccc(C)cc1`, with 3.72 µM; and `C(=C\c1ccco1)/c1ccc2ccccc2n1`, with 4.18 µM.
As for `O=C(Nc1ccc(N2CCCC2)cc1)c1ccccc1F`, the figure is 6.9 µM; as for `O=C(O)c1ccccc1N/N=C/c1cc(Br)cc(Br)c1O`, 7.51 µM; as for `O=C(CN1C(=O)/C(=C2\SC(=S)N(C3CCS(=O)(=O)C3)C2=O)c2ccccc21)Nc1ccccc1` (configuration not stated), under 0.4 µM.
Then `O=C(O)c1ccc(-n2cccc2/C=C2/NC(=O)N(c3ccccc3)C2=O)cc1`, with 3.33 µM.
Compound `CC1CCCCC1NC(=O)c1ccc2c(c1)[nH]c(=O)n2C1CCCC1` (configuration not stated) returned a half-inhibitory concentration (IC50) of over 54 µM.
As for `Cc1c(Cl)cnc(NC(=O)COC(=O)c2ccc([N+](=O)[O-])s2)c1Cl`, the figure is 7.01 µM.
Then `COc1ccc(/C=C2\SC(=O)N(CCC(=O)Nc3ccc(S(=O)(=O)Nc4nccs4)cc3)C2=O)cc1`, with under 0.4 µM.
`COc1ccc(CCNC(=O)COC(=O)Cc2cccc3ccccc23)cc1` gave an IC50 of over 54 µM.
Then `O=C(O)c1cccc(NC2=C(Cl)C(=O)c3ccccc3C2=O)c1`, with 3.79 µM; and `COc1cc(/C=N\Nc2nc(-c3cccs3)c(NC(C)=O)s2)ccc1O`, with under 0.4 µM; and `COc1ccc(/C=C2/SC(=O)N(CCC(=O)Nc3ccc(S(=O)(=O)Nc4nccs4)cc3)C2=O)cc1`, with 3.81 µM.
As for `Cc1ccc(C(C)C)c(OCc2ccc(C(=O)N/N=C/c3ccc(O)cc3O)cc2)c1`, the figure is 13.3 µM; as for `CCc1ccc(S(=O)(=O)/N=C2\C=CC(=O)c3ccccc32)cc1`, under 0.4 µM.
As for `O=C1/C(=C/C=C/c2ccco2)SC(=S)N1c1ccc(O)cc1`, the figure is under 0.4 µM; as for `C=C(C)C(=O)Nc1cccc(C2=NOC3(C2)C[C@@H](C(N)=O)N(C(=O)/C=C/C=C/C)C3)c1` (some centres not stated), under 0.4 µM; as for `CCCOc1ccc(Cc2nn3c(=O)/c(=C/c4ccco4)sc3nc2=O)cc1`, over 54 µM.
